The results in this text go back to ChEMBL document CHEMBL3822420, “New peptide deformylase inhibitors design, synthesis and pharmacokinetic assessment” (Bioorg Med Chem Lett, 2016).

What all share (format): functional
Assay [1] relates to Staphylococcus aureus. As to the kind of experiment: Antibacterial activity against methicillin-resistant Staphylococcus aureus 14-1.
Assay [2] has as its system Staphylococcus aureus. As to the kind of experiment: Antibacterial activity against methicillin-resistant Staphylococcus aureus 14-2.
The subject of assay [3] is Staphylococcus aureus. The assay can be described thus: Antibacterial activity against methicillin-resistant Staphylococcus aureus 14-4.
For assay [4], the system named is Staphylococcus aureus. The assay can be described thus: Antibacterial activity against methicillin-resistant Staphylococcus aureus 14-5.
Assay [5] relates to Staphylococcus aureus. As to the kind of experiment: Antibacterial activity against methicillin-sensitive Staphylococcus aureus 14-1.
The test system of assay [6] is Staphylococcus aureus. The assay can be described thus: Antibacterial activity against methicillin-sensitive Staphylococcus aureus 14-2.
The subject of assay [7] is Staphylococcus aureus. The assay can be described thus: Antibacterial activity against methicillin-sensitive Staphylococcus aureus 14-3.
In assay [8] the test system is Staphylococcus aureus. As to the kind of experiment: Antibacterial activity against methicillin-sensitive Staphylococcus aureus 14-4.
Assay [9] concerns Staphylococcus epidermidis. The assay can be described thus: Antibacterial activity against methicillin-resistant Staphylococcus epidermidis 14-1.
In assay [10] the test system is Staphylococcus epidermidis. The assay can be described thus: Antibacterial activity against methicillin-resistant Staphylococcus epidermidis 14-2.
In assay [11] the test system is Staphylococcus epidermidis. As to the kind of experiment: Antibacterial activity against methicillin-resistant Staphylococcus epidermidis 14-4.
Assay [12] relates to Staphylococcus epidermidis. As to the kind of experiment: Antibacterial activity against methicillin-sensitive Staphylococcus epidermidis 14-1.
Assay [13] deals with Staphylococcus epidermidis. The assay can be described thus: Antibacterial activity against methicillin-sensitive Staphylococcus epidermidis 14-2.
The subject of assay [14] is Staphylococcus epidermidis. The assay can be described thus: Antibacterial activity against methicillin-sensitive Staphylococcus epidermidis 14-3.
Assay [15] deals with Enterococcus faecalis. As to the kind of experiment: Antibacterial activity against Enterococcus faecalis 14-1.
Assay [16] has as its system Enterococcus faecalis. The assay can be described thus: Antibacterial activity against Enterococcus faecalis 14-2.
In assay [17] the test system is Enterococcus faecalis. The assay can be described thus: Antibacterial activity against Enterococcus faecalis 14-3.
Assay [18] has as its system Enterococcus faecalis. As to the kind of experiment: Antibacterial activity against Enterococcus faecalis 14-5.
The test system of assay [19] is Escherichia coli. The assay can be described thus: Antibacterial activity against Escherichia coli 14-1.
Assay [20] has as its system Escherichia coli. As to the kind of experiment: Antibacterial activity against Escherichia coli 14-2.
The test system of assay [21] is Escherichia coli. As to the kind of experiment: Antibacterial activity against Escherichia coli 14-1 expressing extended-spectrum beta-lactamase.
The subject of assay [22] is Escherichia coli. The assay can be described thus: Antibacterial activity against Escherichia coli 14-2 expressing extended-spectrum beta-lactamase.
Assay [23] deals with Staphylococcus epidermidis. The assay can be described thus: Antibacterial activity against methicillin-resistant Staphylococcus epidermidis 14-3.

As a reminder, the MIC is the lowest concentration found to suppress growth. Lower therefore signals a more susceptible organism.

≈ marks a conversion by molar mass, not a printed value. Some results are limits rather than exact numbers.

As for `CO/N=C(\C(=O)N[C@@H]1C(=O)N2C(C(=O)[O-])=CCS[C@H]12)c1csc(N)n1.[Na+]` [CEFTIZOXIME SODIUM], the MIC in assay [1] was 128 µg/mL; in assay [2], 64 µg/mL; in [3], 128 µg/mL; in assay [4], 64 µg/mL; in assay [5], 4 µg/mL; in assay [6], 4 µg/mL. Further, the MIC in [7] came out at 4 µg/mL; in assay [8], 2 µg/mL; in assay [9], 128 µg/mL; in assay [10], 128 µg/mL; in [11], 32 µg/mL; in [12], 32 µg/mL. The MIC in [13] is 64 µg/mL; in assay [14], > 128 µg/mL; in [15], > 128 µg/mL; in assay [16], > 128 µg/mL; in [17], > 128 µg/mL; in assay [18] it was > 128 µg/mL. Further, the MIC in [19] amounted to 4 µg/mL; in assay [20], 4 µg/mL; in [21], 1 µg/mL; in assay [22] it was 32 µg/mL.
With `C[C@H]1COc2c(N3CCN(C)CC3)c(F)cc3c(=O)c(C(=O)O)cn1c23.C[C@H]1COc2c(N3CCN(C)CC3)c(F)cc3c(=O)c(C(=O)O)cn1c23.O` [LEVOFLOXACIN], the minimal inhibitory concentration (MIC) in assay [1] is 128 µg/mL; in assay [2] it was > 128 µg/mL; in [3] it was > 128 µg/mL; in assay [4] it was > 128 µg/mL; in [5], 16 µg/mL; in assay [6], 0.5 µg/mL. The MIC in assay [7] worked out at 32 µg/mL; in [8] it was 16 µg/mL; in assay [9], 16 µg/mL; in assay [10] it was 16 µg/mL; in assay [23] it was 16 µg/mL; in assay [11], 16 µg/mL. The MIC in assay [12] is 0.5 µg/mL; in [13], 0.5 µg/mL; in [14], 0.5 µg/mL; in assay [15], 2 µg/mL; in assay [16] it was 4 µg/mL; in [17], 2 µg/mL. The figures for the MIC in assay [18], in assay [21] and in assay [22] were 2 µg/mL, 32 µg/mL and 64 µg/mL, respectively.
Take `CCCC[C@H](CN(O)C=O)C(=O)N1CC2(CC2)C[C@H]1C(=O)Nc1nccc(-c2cccnc2)n1`: the minimal inhibitory concentration (MIC) in [1] was found to be 2 µg/mL (≈ 4.29 µM); in assay [2], 0.5 µg/mL (≈ 1.07 µM); in [3], 2 µg/mL (≈ 4.29 µM); in assay [4] it was 0.25 µg/mL (≈ 0.536 µM); in assay [5] it was 0.25 µg/mL (≈ 0.536 µM); in assay [6], 0.5 µg/mL (≈ 1.07 µM). Moreover, the MIC turned out to be 0.5 µg/mL (≈ 1.07 µM) in assay [7]; 0.25 µg/mL (≈ 0.536 µM) in assay [8]; 0.25 µg/mL (≈ 0.536 µM) in assay [9]; 0.25 µg/mL (≈ 0.536 µM) in [10]; 0.125 µg/mL (≈ 0.268 µM) in assay [23]; 0.5 µg/mL (≈ 1.07 µM) in [11]. The MIC in assay [12] came out at 0.125 µg/mL (≈ 0.268 µM); in assay [13], 0.5 µg/mL (≈ 1.07 µM); in assay [14], 0.25 µg/mL (≈ 0.536 µM); in assay [15], 0.5 µg/mL (≈ 1.07 µM); in assay [16] it was 0.5 µg/mL (≈ 1.07 µM); in assay [17] it was 1 µg/mL (≈ 2.14 µM). The MIC in assay [18] is 0.5 µg/mL (≈ 1.07 µM); in assay [19], > 64 µg/mL; in assay [20] it was > 64 µg/mL; in assay [21] it was 2 µg/mL (≈ 4.29 µM); in assay [22] it was > 64 µg/mL.
In the case of `CCCC[C@H](CN(O)C=O)C(=O)N1CC2(CC2)C[C@H]1c1nnc2ccccn12`, the MIC in assay [1], in assay [2], in [3], in [4], in assay [5] and in assay [6] was 1 µg/mL (≈ 2.59 µM) throughout. Moreover, the MIC in [7] amounted to 1 µg/mL (≈ 2.59 µM); in assay [8] it was 1 µg/mL (≈ 2.59 µM); in [9], 0.5 µg/mL (≈ 1.3 µM); in assay [10], 0.5 µg/mL (≈ 1.3 µM); in assay [23] it was 0.25 µg/mL (≈ 0.649 µM); in assay [11] it was 1 µg/mL (≈ 2.59 µM). Besides, the MIC in assay [12] was 0.25 µg/mL (≈ 0.649 µM); in assay [13], 0.5 µg/mL (≈ 1.3 µM); in assay [14], 0.5 µg/mL (≈ 1.3 µM); in assay [15] it was 4 µg/mL (≈ 10.4 µM); in [16] it was 8 µg/mL (≈ 20.8 µM); in assay [17], 8 µg/mL (≈ 20.8 µM). The MIC was found to be 8 µg/mL (≈ 20.8 µM) in [18]; 128 µg/mL (≈ 332 µM) in assay [19]; 128 µg/mL (≈ 332 µM) in [20]; 2 µg/mL (≈ 5.19 µM) in [21]; 128 µg/mL (≈ 332 µM) in assay [22].
For `Cc1nc(NNC(=O)[C@H](CC2CCCC2)CN(O)C=O)c(F)c(N2CCN3CCOC[C@@H]3C2)n1` [LANOPEPDEN], the MIC came to 2 µg/mL (≈ 4.17 µM) in assay [1]; 1 µg/mL (≈ 2.09 µM) in assay [2]; 2 µg/mL (≈ 4.17 µM) in assay [3]; 0.25 µg/mL (≈ 0.521 µM) in assay [4]; 1 µg/mL (≈ 2.09 µM) in assay [5]; 1 µg/mL (≈ 2.09 µM) in [6]. Moreover, the MIC in assay [7] was determined as 1 µg/mL (≈ 2.09 µM); in [8] it was 1 µg/mL (≈ 2.09 µM); in [9], 0.125 µg/mL (≈ 0.261 µM); in [10], 0.06 µg/mL (≈ 0.125 µM); in assay [23], 0.015 µg/mL (≈ 0.0313 µM); in [11], 0.25 µg/mL (≈ 0.521 µM). The MIC in assay [12] was 0.125 µg/mL (≈ 0.261 µM); in assay [13] it was 0.25 µg/mL (≈ 0.521 µM); in assay [14], 0.06 µg/mL (≈ 0.125 µM); in assay [15], 8 µg/mL (≈ 16.7 µM); in assay [16], 16 µg/mL (≈ 33.4 µM); in assay [17] it was 16 µg/mL (≈ 33.4 µM). Besides, the MIC in assay [18] was > 64 µg/mL; in [19], 64 µg/mL (≈ 133 µM); in assay [20], 64 µg/mL (≈ 133 µM); in assay [21], 1 µg/mL (≈ 2.09 µM); in assay [22], > 64 µg/mL.
As to `CCCC[C@H](CN(O)C=O)C(=O)N1CC2(CC2)C[C@H]1c1nnc(-c2ccccn2)o1`, the MIC in [1] was determined as 4 µg/mL (≈ 9.67 µM); in [2], 4 µg/mL (≈ 9.67 µM); in assay [3] it was 4 µg/mL (≈ 9.67 µM); in [4], 2 µg/mL (≈ 4.84 µM); in assay [5], 4 µg/mL (≈ 9.67 µM); in assay [6], 2 µg/mL (≈ 4.84 µM). The MIC was found to be 2 µg/mL (≈ 4.84 µM) in assay [7]; 2 µg/mL (≈ 4.84 µM) in assay [8]; 1 µg/mL (≈ 2.42 µM) in assay [9]; 0.5 µg/mL (≈ 1.21 µM) in assay [10]; 0.5 µg/mL (≈ 1.21 µM) in [23]; 4 µg/mL (≈ 9.67 µM) in assay [11]. For the same molecule, the MIC in assay [12] worked out at 1 µg/mL (≈ 2.42 µM); in [13] it was 1 µg/mL (≈ 2.42 µM); in assay [14], 0.5 µg/mL (≈ 1.21 µM); in assay [15], 4 µg/mL (≈ 9.67 µM); in assay [16], 8 µg/mL (≈ 19.3 µM); in assay [17], 8 µg/mL (≈ 19.3 µM). The MIC in [18] is 8 µg/mL (≈ 19.3 µM); in [19], 128 µg/mL (≈ 310 µM); in [20] it was 64 µg/mL (≈ 155 µM); in assay [21] it was 0.5 µg/mL (≈ 1.21 µM); in assay [22], 64 µg/mL (≈ 155 µM).
With `CO[C@H]1/C=C/O[C@@]2(C)Oc3c(C)c(O)c4c(O)c(c(/C=N/N5CCN(C)CC5)c(O)c4c3C2=O)NC(=O)/C(C)=C\C=C\[C@H](C)[C@H](O)[C@@H](C)[C@@H](O)[C@@H](C)[C@H](OC(C)=O)[C@@H]1C` [RIFAMPIN], the MIC in assay [1] is > 128 µg/mL; in assay [2], > 128 µg/mL; in [3], > 128 µg/mL; in assay [4], > 128 µg/mL; in assay [5] it was < 0.008 µg/mL; in assay [6], 0.008 µg/mL (≈ 0.00972 µM). In addition, the MIC in assay [7] is 0.008 µg/mL (≈ 0.00972 µM); in [8] it was < 0.008 µg/mL; in assay [23] it was 0.008 µg/mL (≈ 0.00972 µM); in assay [11], < 0.008 µg/mL; in assay [12] it was < 0.008 µg/mL; in assay [13], < 0.008 µg/mL. Moreover, the minimum inhibitory concentration (MIC) was 0.008 µg/mL (≈ 0.00972 µM) in assay [14]; 1 µg/mL (≈ 1.22 µM) in assay [15]; 2 µg/mL (≈ 2.43 µM) in assay [16]; 2 µg/mL (≈ 2.43 µM) in assay [17]; 4 µg/mL (≈ 4.86 µM) in assay [18]; 2 µg/mL (≈ 2.43 µM) in assay [19]. In addition, the MIC in assay [20], in assay [21] and in assay [22] was 2 µg/mL (≈ 2.43 µM) throughout.
